{"source": "patent US5336758A", "about": "“Peptides stimulating cytotoxic T cells immune to HIV RT” (The United States of America as represented by the …, priority 1990, dated 1994)", "test_system": "L-cells", "assay_type": "cell-based, murine", "details": "spontaneous lysis and cell recovery in presence of peptide alone (data not shown)", "text": "Identification of the immunodominant epitope recognized by the line Pol a: To identify the epitope(s) contained in this area, we used 21 overlapping 15-amino acid peptides designated HP134 to HP154 covering residues 168 to 316. […] HP138 ([…]) corresponds to residues 205-219 of the HTLV/IIIB strain sequence (32). […] The line Pol a was Class I MHC-restricted because it killed HP 138-pulsed, Class II MHC molecule-negative H-2^k L-cell fibroblasts, but not 3T3 fibroblasts (H-2^d) or EL4 thymoma cells (H-2^b).", "data": [{"smiles": "CC[C@H](C)[C@H](NC(=O)[C@H](CCCCN)NC(=O)[C@H](CO)NC(=O)[C@@H](NC(=O)[C@H](CCCCN)NC(=O)CNC(=O)[C@H](CCC(=O)O)NC(=O)[C@H](CCCCN)NC(=O)[C@H](CCC(=O)O)NC(=O)[C@H](CCSC)NC(=O)[C@H](CCC(=O)O)NC(=O)[C@@H](NC(=O)[C@@H](N)CS)[C@@H](C)O)[C@@H](C)CC)C(=O)NCC(=O)N1CCC[C@H]1C(=O)O", "note": "[HP138]", "values": [{"measurement": "toxicity of the peptide by itself", "result": "not toxic by itself"}]}]}
